The results in this text go back to patent US12269800B2, “Delivery of therapeutic alkaloid compounds” (priority 2021, dated 2025).

The conditions of data set [1]: 5 µM.
For data set [2] the following is noted: 5 µM. This is another data set of the same source.
Data set [3] is classed as physicochemical. On the procedure: The hydrolysis kinetics was under a certain temperature and measured by LCMS at a certain time interval. The corresponding LCMS chromatograms were recorded and the conversions were calculated. The hydrolysis conditions and the data were summarized in below table. LCMS spectra were obtained using Agilent 1200G1956A or SHIMADZU LCMS-2020. Standard LCMS conditions were as follows (running time 1.55 minutes):
Acidic condition: Mobile Phase A: 0.0375% TFA in water (v/v). Mobile Phase B: 0.01875% TFA in acetonitrile (v/v); Column: Kinetex EVO C18 30*2.1 mm, 5 μm.
Basic condition: Mobile Phase A: 0.025% NH3—H2O in water (v/v). Mobile Phase B: Acetonitrile; Column: Kinetex EVO C18 2.1×30 mm, 5 μm.
Conversion (%)=peak area 1/(peak area 1+peak area 2)*100%, peak area 1 is the integration of hydrolyzed product, peak area 2 is the integration of starting material.

Data set [4] is described as follows: Hydrolysis Assay of Example A2, Condition 1 (SGF with pepsin, pH 1.5, 37° C.). It counts as physicochemical. The following applies: pH 1.5.
A short description of data set [5]: Plasma Stability Assay of Example A4, rat plasma. The following applies: 37° C., % prodrug remaining.
Description: 50 uL aliquots of positive controls and test compounds spiked into rat or human plasma (n=2) were added to a pre-warmed plate (37° C.) and shaken at 50 rpm. At each respective time point, the reaction was stopped by adding 500 μL of acetonitrile containing internal standards (100 nM aprozolam, 200 nM caffeine, 100 nM tolbutamide). All samples were vortexed for 10 minutes, followed by centrifugation at 3,220 g for 30 minutes to precipitate proteins. 100 μL of the supernatant is transferred to a new plate. The supernatant will be diluted with ultrapure water according to the LC-MS signal response and peak shape.
Data set [6] is described as follows: Plasma Stability Assay of Example A4, human plasma. The following applies: 37° C., % prodrug remaining.

Like-named read-outs stand apart in the source and are kept apart here.

As to `COc1ccc([C@@]23CCC(=NNC(=O)Nc4ccc(C(=O)O)cc4)C[C@@H]2N(C)CC3)cc1OC` (racemic) [Compound 259, 4-[[[(3aS,7aS)-3a-(3,4-dimethoxyphenyl)-1-methyl-2,3,4,5,7,7a-hexahydroindol-6-ylidene]amino]carbamoylamino]benzoic acid], the “Mouse Plasma Prodrug (%)” value in data set [1] (0 min) was found to be 100%; in data set [1] (15 min) it was 86.2%; in data set [1] (30 min), 81.0%; in data set [1] (60 min), 67.6%; in data set [1] (120 min) it was 38.7%; in data set [1] (240 min), 19.8%. Also, the “Human Plasma Prodrug (%)” value was 100% in data set [2] (0 min); above 99% in data set [2] (15 min); 96.6% in data set [2] (30 min); 85.7% in data set [2] (60 min); 70.0% in data set [2] (120 min); 54.3% in data set [2] (240 min).
As to `COc1ccc([C@@]23CCC(OC(C)=O)=C[C@@H]2N(C)CC3)cc1OC` [Compound 026, [(3aS,7aS)-3a-(3,4-dimethoxyphenyl)-1-methyl-3,4,5,7a-tetrahydro-2H-indol-6-yl] acetate], the “Conversion (%)” value in data set [3] amounted to 0%. For the same molecule, the “Notes (stability in words)” value in data set [3] is given as “Stable;”. The “Condition 1 Conversion (%)” value in data set [4] is listed as 0%. Also, the “Rat Plasma Prodrug (%)” value amounted to 100.0% in data set [5] (time 0.0 min); 0.0% in data set [5] (time 10 min); 0.0% in data set [5] (time 30 min); 0.0% in data set [5] (time 60 min); 0.0% in data set [5] (time 120 min); 0.0% in data set [5] (time 240 min). For the same molecule, the “Human Plasma Prodrug (%)” value is listed as 100.0% in data set [6] (time 0.0 min); 40.3% in data set [6] (time 10 min); 23.5% in data set [6] (time 30 min); 12.0% in data set [6] (time 60 min); 3.4% in data set [6] (time 120 min); 0.8% in data set [6] (time 240 min).
